Experimental findings from patent US4550021A (The Kitasato Institute, priority 1983, dated 1985) are described below.

Common to all, as to assay type: physicochemical
Data set [1] is described as follows: Stability under heating.
The nature of data set [2]: Nature (acid/base).
Data set [3] is described as follows: Solubility. As to conditions: for Solubility in organic solvents: dichloromethane, chloroform, acetone.

On to `CCC(=C/[C@H](C)C/C=C/C(C)=C/[C@@H](CO)C(=O)[C@@H](C)[C@H](O)[C@@H](C)C/C(C)=C/C(=O)O)/C=C/[C@@H]1OC(=O)C=C[C@@H]1C` [antibiotic 81-484], for which the stability under heating result in data set [1] was “stable under heating”. For the same compound, the Nature result in data set [2] was “acidic substance”. The “Solubility in organic solvents” value is on record as “soluble” in data set [3] (diethyl ether, methanol, ethyl acetate, butyl acetate, benzene) and “soluble” in data set [3] (many types: methanol, ethanol, methyl isobutyl ketone). Further, the Solubility in hexane entry in data set [3] (hexane) is “insoluble”. For the same compound, in data set [3] (water), the Solubility in water result was “insoluble”.
